Data set [1] relates to enterovirus EV71 (BrCr strain). The data set can be described thus: Activity screening for anti-enterovirus EV71: inhibition of cytopathic effect in Vero cells. The data set is classed as cell-based. The settings on record: for IC50: 100TCID50, Vero cells, CPE read when virus control reaches 4+, read-out: IC50 (half inhibitory concentration for enterovirus EV71); for SI (Selectivity Index = TC50/IC50): Vero cells. How it is done:
Test item: Activity screening of the compounds for anti-enterovirus EV71
Test principle: Vero cells are used as viral host. The inhibition of the compound of the invention on the degree of cytopathic effect of Vero cells caused by enterovirus virus EV71 is determined.
1. Virus strain: enterovirus EV71 (BrCr, American Type Culture Collection, ATCC)
(§1) 2. Sample treatment: the compounds of the present invention are dissolved in DMSO or diluent to prepare stock solution which is stored at −20° C. The stock solution is formulated to suitable incipient concentration with culture solution immediately before use, and then 3-fold diluted with the culture solution, 8 degrees of dilution each.
3. Positive control drug: Pirodavir (LGM Pharma), which is a broad-spectrum anti-viral inhibitor.
(§2) 4. Test Method: Vero cells are seeded into a 96-well culture plate, at 5% CO2, and cultured at 37° C. for 16 hours. The Vero cells are added with different dilutions of drugs, and the degree of cytopathic effect (CPE) in each group is observed. The half toxic concentration (TC50) of each sample for Vero cells is calculated. Vero cells are added with 100TCID50 enterovirus EV71 respectively, and the virus solution is discarded after adsorption at 37° C. for 1 hour, and then drugs with various degrees of dilution are added respectively. Virus control and cell control are set and incubated at 37° C. The degree of cytopathic effect (CPE) in each group is observed when the degree of cytopathic effect (CPE) of virus control group reaches 4+. The half inhibitory concentration (IC50) of each sample for enterovirus EV71 are calculated. Selectivity Index (SI) is calculated according to the following equation: SI=TC50/IC50.

A further data set deals with Vero cells. The data set can be described thus: Cytotoxicity of the compounds for Vero cells (CPE observation, TC50). The format is cell-based. The settings on record: no virus. How it is done:
as §1, §2

Values after ≈ are worked out from the molar mass of the structure shown.

Regarding `O=C(Nc1nccs1)[C@H]1O[C@@H]1C(=O)N(Cc1ccccc1)c1ccccc1` [Compound 2, (2S,3S)—N^2-benzyl-N^2-phenyl-N^3-(2-thiazolyl)-2,3-epoxybutanediamide], the melting point – broadly, the temperature, or range, at which the solid turns liquid – fell in the range of 146.6 to 147.4 °C. Besides, in data set [1], the IC50 amounted to 2.47 µg/mL (≈ 6.51 µM) and the “SI (Selectivity Index = TC50/IC50)” value is 4.32. For the same compound, in the data set on Vero cells, the “TC50 (half toxic concentration for Vero cells)” value came to 10.68 µg/mL.

The compound `O=C(Nc1cccc(Br)c1)[C@H]1O[C@@H]1C(=O)N(Cc1ccccc1)c1ccccc1` [Compound 14, (2S,3S)—N^2-benzyl-N^2-phenyl-N^3-(3-bromophenyl)-2,3-epoxybutanediamide] returned a melting point of 177.5 to 178.2 °C. Also, in data set [1], the IC50 came to 1.43 µg/mL (≈ 3.17 µM) and the “SI (Selectivity Index = TC50/IC50)” value is given as 8.97. For the same compound, the “TC50 (half toxic concentration for Vero cells)” value in the data set with Vero cells worked out at 12.83 µg/mL.

The compound `O=C(Nc1nc2ccccc2s1)c1ccc(N(Cc2ccccc2)C(=O)[C@H]2O[C@@H]2C(=O)Nc2ccc(Cl)c(Cl)c2)cc1` [Compound 40, (2S,3S)—N^2-(4-(benzo[d]thiazol-2-ylcarbamoyl)phenyl)-N^2-benzyl-N^3-(3,4-dichlorophenyl)-2,3-epoxybutanediamide] displayed a melting point of 217.6 to 218.3 °C. Further, the IC50 in data set [1] is greater than 0.82 µg/mL. Further, in the data set on Vero cells, the “TC50 (half toxic concentration for Vero cells)” value is 1.43 µg/mL.

Consider `O=C(Nc1nc2ccccc2s1)c1ccc(N(Cc2ccc(F)cc2)C(=O)[C@H]2O[C@@H]2C(=O)Nc2nccs2)cc1` [Compound 32, (2S,3S)—N^2-(4-(benzo[d]thiazol-2-ylcarbamoyl)phenyl)-N^2-(4-fluorobenzyl)-N^3-(2-thiazolyl)-2,3-epoxybutanediamide], for which the melting point lay within 216.4 to 217.2 °C. The IC50 in data set [1] is greater than 0.27 µg/mL. In addition, the “TC50 (half toxic concentration for Vero cells)” value in the data set with Vero cells worked out at 1.19 µg/mL.

Take `COc1ccc(NC(=O)[C@H]2O[C@@H]2C(=O)N(Cc2ccccc2)c2ccccc2)cc1OC` [Compound 1, (2S,3S)—N^2-benzyl-N^2-phenyl-N^3-(3,4-dimethoxyphenyl)-2,3-epoxybutanediamide]: the melting point lay within 156.5 to 157.2 °C. For the same compound, the IC50 in data set [1] was greater than 2.47 µg/mL. For the same compound, the “TC50 (half toxic concentration for Vero cells)” value in the data set with Vero cells was 10.68 µg/mL.

As to `O=C(Nc1ccc(F)cc1)[C@H]1O[C@@H]1C(=O)N(Cc1ccccc1)c1ccccc1` [Compound 5, (2S,3S)—N^2-benzyl-N^2-phenyl-N^3-(4-fluorophenyl)-2,3-epoxybutanediamide], the melting point is 153.8 to 154.7 °C. Moreover, in data set [1], the IC50 was found to be 2.47 µg/mL (≈ 6.33 µM) and the “SI (Selectivity Index = TC50/IC50)” value was determined as 4.32. The “TC50 (half toxic concentration for Vero cells)” value in the data set on Vero cells was 10.68 µg/mL.

Take `CCOC(=O)c1ccc(OCCC2CCN(c3ccc(C)nn3)CC2)cc1` [Pirodavir, reference compound]: in data set [1], the IC50 was 0.13 µg/mL (≈ 0.352 µM) and the “SI (Selectivity Index = TC50/IC50)” value came to 4.81. Moreover, the “TC50 (half toxic concentration for Vero cells)” value in the data set with Vero cells is 4.81 µg/mL.

Take `O=C(Nc1ccccc1F)[C@H]1O[C@@H]1C(=O)N(Cc1ccccc1)c1ccccc1` [Compound 6, (2S,3S)—N^2-benzyl-N^2-phenyl-N^3-(2-fluorophenyl)-2,3-epoxybutanediamide]: the melting point was in the range of 139.2 to 140.3 °C. Further, in data set [1], the IC50 was determined as 0.82 µg/mL (≈ 2.1 µM) and the “SI (Selectivity Index = TC50/IC50)” value is 5.22. Further, the “TC50 (half toxic concentration for Vero cells)” value with Vero cells was 4.28 µg/mL.

In turn, `O=C(Nc1ccccc1Br)[C@H]1O[C@@H]1C(=O)N(Cc1ccccc1)c1ccccc1` [Compound 15, (2S,3S)—N^2-benzyl-N^2-phenyl-N^3-(2-bromophenyl)-2,3-epoxybutanediamide] returned a melting point of 113.2 to 114.3 °C. Also, in data set [1], the IC50 was found to be 0.47 µg/mL (≈ 1.04 µM) and the “SI (Selectivity Index = TC50/IC50)” value turned out to be 3.04. For the same compound, the “TC50 (half toxic concentration for Vero cells)” value in the data set with Vero cells was 1.43 µg/mL.

`COc1cccc(NC(=O)[C@H]2O[C@@H]2C(=O)N(Cc2ccc(F)cc2)c2ccc(C(=O)Nc3nc4ccccc4s3)cc2)c1` [Compound 21, (2S,3S)—N^2-(4-(benzo[d]thiazol-2-ylcarbamoyl)phenyl)-N^3-(3-methoxyphenyl)-N^2-(4-fluorobenzyl)-2,3-epoxybutanediamide] showed a melting point of 223.1 to 224.1 °C. Besides, in data set [1], the IC50 was greater than 0.27 µg/mL. In the data set with Vero cells, the “TC50 (half toxic concentration for Vero cells)” value worked out at 1.19 µg/mL.

With `O=C(Nc1nc2ccccc2s1)c1ccc(N(Cc2ccc(F)cc2)C(=O)[C@H]2O[C@@H]2C(=O)Nc2cccc(Br)c2)cc1` [Compound 18, (2S,3S)—N^2-(4-(benzo[d]thiazol-2-ylcarbamoyl)phenyl)-N^3-(3-bromophenyl)-N^2-(4-fluorobenzyl)-2,3-epoxybutanediamide], the melting point fell in the range of 206.3 to 207.1 °C. In addition, in data set [1], the IC50 was greater than 0.82 µg/mL. Moreover, in the data set on Vero cells, the “TC50 (half toxic concentration for Vero cells)” value was determined as 1.43 µg/mL.

For `O=C(Nc1nc2ccccc2s1)c1ccc(N(Cc2ccc(F)cc2)C(=O)[C@H]2O[C@@H]2C(=O)Nc2ccc(Cl)c(Cl)c2)cc1` [Compound 31, (2S,3S)—N^2-(4-(benzo[d]thiazol-2-ylcarbamoyl)phenyl)-N^3-(3,4-dichlorophenyl)-N^2-(4-fluorobenzyl)-2,3-epoxybutanediamide], the melting point was 218.2 to 219.1 °C. Also, the IC50 in data set [1] was greater than 0.82 µg/mL. For the same compound, the “TC50 (half toxic concentration for Vero cells)” value in the data set on Vero cells was 1.43 µg/mL.

`Cc1c(Cl)cccc1NC(=O)[C@H]1O[C@@H]1C(=O)N(Cc1ccccc1)c1ccccc1` [Compound 13, (2S,3S)—N^2-benzyl-N^2-phenyl-N^3-(2-methyl-3-chlorophenyl)-2,3-epoxybutanediamide] came in with a melting point of 119.4 to 120.2 °C. Moreover, in data set [1], the IC50 was greater than 0.27 µg/mL. For the same compound, the “TC50 (half toxic concentration for Vero cells)” value in the data set on Vero cells amounted to 1.19 µg/mL.

`O=C(Nc1cccc(F)c1)[C@H]1O[C@@H]1C(=O)N(Cc1ccccc1)c1ccccc1` [Compound 4, (2S,3S)—N^2-benzyl-N^2-phenyl-N^3-(3-fluorophenyl)-2,3-epoxybutanediamide]: the melting point is 180.5 to 182 °C. Moreover, in data set [1], the IC50 was determined as 2.47 µg/mL (≈ 6.33 µM) and the “SI (Selectivity Index = TC50/IC50)” value is on record as 3.00. Moreover, in the data set on Vero cells, the “TC50 (half toxic concentration for Vero cells)” value turned out to be 7.41 µg/mL.

Take `O=C(Nc1nc2ccccc2s1)c1ccc(N(Cc2ccccc2)C(=O)[C@H]2O[C@@H]2C(=O)O)cc1` [Compound 38, (2S,3S)-3-((4-(benzo[d]thiazol-2-ylcarbamoyl)phenyl)(benzyl)carbamoyl)oxirane-2-carboxylic acid]: the melting point lay in the range of 198.6 to 199.3 °C. Also, the IC50 in data set [1] was greater than 22.2 µg/mL. Also, the “TC50 (half toxic concentration for Vero cells)” value in the data set with Vero cells amounted to 115.47 µg/mL.

With `CCOC(=O)c1csc(NC(=O)[C@H]2O[C@@H]2C(=O)N(Cc2ccc(F)cc2)c2ccc(C(=O)Nc3nc4ccccc4s3)cc2)n1` [Compound 33, (2S,3S)—N^2-(4-(benzo[d]thiazol-2-ylcarbamoyl)phenyl)-N^2-(4-fluorobenzyl)-N^3-(4-ethoxycarbonylthiazol-2-yl)-2,3-epoxybutanediamide], the melting point was in the range of 220.5 to 221.6 °C. In addition, the IC50 in data set [1] is greater than 0.27 µg/mL. In addition, in the data set on Vero cells, the “TC50 (half toxic concentration for Vero cells)” value amounted to 1.19 µg/mL.

Turning to `COC(=O)c1cnc(NC(=O)[C@H]2O[C@@H]2C(=O)N(Cc2ccccc2)c2ccc(C(=O)Nc3nc4ccccc4s3)cc2)s1` [Compound 42, (2S,3S)—N^2-(4-(benzo[d]thiazol-2-ylcarbamoyl)phenyl)-N^2-benzyl-N^3-(5-methoxycarbonylthiazol-2-yl)-2,3-epoxybutanediamide], in data set [1], the IC50 is greater than 0.82 µg/mL. For the same compound, in the data set on Vero cells, the “TC50 (half toxic concentration for Vero cells)” value was 4.28 µg/mL.

The values above are taken from US9630957B2, “2,3-butanediamide epoxide compound and preparation method and use thereof” (Institute of Pharmacology and Toxicology Academy of …, priority 2014, dated 2017).
